For experiment [1], the system named is GLUT1, GLUT3, GLUT4. Description: mRNA levels of glucose transporters in myotubes by Real-Time RT-PCR. As to conditions: for GLUT4 mRNA level, increase: 1 μmol/l T0901317 or 10 μmol/l 22-R-HC for 4 days. Format: cell-based, human. From the text: FIG. 7. Glucose transport is increased in human myotubes after chronic 22-S-HC treatment. Human myoblasts were allowed to differentiate for 2 days, and then exposed to 1 μmol/1 T0901317, 10 μmol/[…]) or 1, 2, 5 and 10 μmol/1 22-S-HC(S-HC) for 4 days. […] (A) Present means for glucose uptake±SEM (n=4). Basal level for control are 1.20±0.24 nmol/mg cell protein. (B) A representative dose-response curve for glucose uptake after 1, 2, 5 and 10 μmol/l 22-S-HC treatment (n=3). (C) Total RNA were reversely transcribed and analyzed by Real-Time RT-PCR. Results are normalized to levels of 36B4 and present means±SEM (n=4-6). Relative expressions of GLUT1, GLUT3, GLUT4, and hexokinase (HK)II, ^ap<0.05 vs control, ^dp<0.05 vs T0901317. RNA isolation and analysis of gene expression by RT-PCR. Myotubes were washed, trypsinized and pelleted before total RNA was isolated by RNeasy Mini kit (Qiagen Sciences, Oslo, Norway) or Agilent Total RNA Mini kit (Matrix, Oslo, Norway) according to the suppliers total RNA isolation protocol. RNA samples were incubated with RNase-free DNase (Qiagen Sciences) for minimum 15 min in an additional step during the RNA isolation procedure. Total RNA (1 μg/μl) was reversely transcribed with […] primers using a Perkin-Elmer Thermal Cycler 9600 (25° C. for 10 min, 37° C. for 1 h, 99° C. for 5 min) and a TaqMan reverse-transcription reagents kit (Applied Biosystems). Real time PCR was performed using an ABI PRISM® 7000 Detection System. DNA expression was determined by SYBR® Green (Applied Biosystems), and primers [36B4 (Acc#M17885), ACSL1 (Acc#NM-001995), ABCA1 (Acc#AF165281), CD36 (Acc#L06850), FAS (Acc#U26644), GAPDH (Acc#J104038/M33197, GLUT4 (Acc#M20747), LXRα (Acc#U22662), LXR (Acc#U07132), Myogenin (Acc#X17651), MyoD (Acc#BC064493), PPARα (Acc#L02932), PPARδ (Acc#BC002715), PPARγ (Acc#L40904), SCD-1 (Acc#AB032261), SREBP1c (Acc#U00968)], GLUT1, (Acc#03195), GLUT3 ([…]) were designed using Primer Express® (Applied Biosystems). Each target gene was quantified in triplicates and carried out in a 25 μl reaction volume according to the suppliers protocol. […]

Experiment [2] deals with human myotubes. Description: Lipogenesis and lipid distribution: acetate incorporation into FFA, DAG and TAG in myotubes. Format: cell-based. Conditions: compared to control myotubes; for FFA synthesis from labeled acetate, increase / level of TAG from labeled acetate: 1 μM T0901317 or 10 μM 22-HC for 4 days; for level of DAG from labeled acetate: 1 μM T0901317 or 10 μM 22-R-HC for 4 days. As to the method:
Human myoblasts were differentiated and treated with LXR ligands as described in FIG. 3. The cells were then incubated with [1-^14C]acetate (2 μCi/ml, 0.1 mM) for 4 h before levels of free fatty acids (FFA), diacylglycerol (DAG) and triacylgycerol (TAG) were determined. Results present means±SEM (n=5; independent muscle cell donors). **p<0.05 vs all other treatments, ^#p<0.05 vs T0901317. Human skeletal muscle cell cultures. […] The biopsies were obtained with informed consent and by approval of the National Committee for Research Ethics, Oslo, Norway. Muscle cell cultures free of fibroblasts were established by the method of Henry et al. (Diabetes, 44, 936-946, 1995), with minor modifications. Briefly, muscle tissue was dissected in Ham's F-10 media at 4° C., dissociated by three successive treatments with 0.05% trypsin/EDTA, and satellite cells were re-suspended in SkGM with 2% FCS and no added insulin. The cells were grown on culture wells coated with ECM gel (Apmis, 109, 726-734, 2001). At about 80% confluence, fusion of myoblasts into multinucleated myotubes was achieved by growth in DMEM with 2% FCS. All cells used were at passage 4 to 6. After 2 days in DMEM the cells were exposed to vehicle (0.1% DMSO), 1 μM T0901317, 10 μ[…]-hydroxycholesterol (22-R-HC) or 10 μ[…]-hydroxycholesterol (22-S-HC) for 4 days. Lipogenesis and lipid distribution. Myotubes were exposed to DMEM supplemented with [1-^14C]acetic acid (2 μCi/ml, 0.1 mM) for 4 h to study lipogenesis and acetate incorporation into TAG and diacylglycerol (DAG). Myotubes were harvested and analyzed as described above (Palmitate uptake and lipid distribution).

For experiment [3], the system named is rat FAS luciferase reporter. Description: Transfection and luciferase assay with rat FAS promoter reporter in COS-1 cells co-transfected with RXRα and LXRα. Format: cell-based. Conditions: COS-1 cells with RXRα and LXRα expression vectors; 1 μM T0901317 or 10 μM 22-HC for 48 h; vs unstimulated control cells. As to the method: FIG. 6. […] COS-1 cells were transient transfected with rat FAS luciferase reporter and co-transfected with β-galactosidase (internal control), RXRα and LXRα expression vectors. Medium was supplied with vehicle (0.1% DMSO), 1 μM T0901317, 10 μM 22-R-hydroxycholesterol (22-R-HC) or 10 μM 22-S— hydroxycholesterol (22-S-HC) for 48 h. The results represent one of two experiments performed with triplicate cell culture dishes and are presented as means±SD.
Transfection and Luciferase Assay. Monkey kidney COS-1 cells (ATCC no. CRL 1650) were grown in DMEM supplemented with 10% FBS. For reporter gene assays, COS-1 cells were transiently transfected with luciferase reporter containing sequences from −1594 to +67 bp of the rat FAS promoter (5 μg), with a known LXR responsive element (LXRE) located at −669 to −655 (kindly provided by Peter Tontonoz, Howard Hughes Medical Institute, California, USA) and co-transfected with pCMX-RXRα, pCMX-LXRα, (1 μg each), and pSV-β-galactosidase (3 μg) expression vectors with calcium phosphate precipitation. Total DNA concentration was adjusted to 12 μg with corresponding empty expression vectors and pGL3-basic vector. After 3 h of transfection, medium containing appropriate reagents was added for 48 h. Cells were harvested in 100 μl lysis buffer, and luciferase activities were measured in a TD-20/20 Luminometer (Turner Designs, Sunnyvale, Calif.) using the dual luciferase assay kit (Promega). Relative luciferase activity was normalized against β-galactosidase activity.

In the case of `CC(C)CC[C@@H](O)[C@@H](C)[C@H]1CC[C@H]2[C@@H]3CC=C4C[C@@H](O)CC[C@]4(C)[C@H]3CC[C@]12C` [Example 22-R-HC, 22-R-hydroxycholesterol], the “GLUT4 mRNA level, increase” value in experiment [1] is on record as 4 fold. Further, in experiment [2], the “FFA synthesis from labeled acetate, increase” value (shortened to “FFA synthesis … increase”) is on record as 3 fold; the “level of TAG from labeled acetate” value is “slight increase”; the “level of DAG from labeled acetate” value is recorded as “did not change”. For the same compound, in experiment [3], the “rat FAS promoter luciferase reporter activity” value was “unable to regulate the FAS gene promoter”.
In the case of `CC(C)CC[C@H](O)[C@@H](C)[C@H]1CC[C@H]2[C@@H]3CC=C4C[C@@H](O)CC[C@]4(C)[C@H]3CC[C@]12C` [Example 22-S-HC, 22-S-hydroxycholesterol], in experiment [2], the “FFA synthesis … increase” value is reported as “only tended to increase FFA synthesis slightly” and the “level of TAG from labeled acetate” value is “tendency towards reduced TAG”. In addition, in experiment [2] (10 μM for 4 days), the “reduction for DAG from labeled acetate” value is recorded as approximately 50%. In addition, the “rat FAS promoter luciferase reporter activity” value in experiment [3] is given as “seemed to reduce reporter activity”.
As for `O=S(=O)(c1ccccc1)N(CC(F)(F)F)c1ccc(C(O)(C(F)(F)F)C(F)(F)F)cc1` [Example T0901317], the “GLUT4 mRNA level, increase” value in experiment [1] was determined as 4 fold. For the same compound, in experiment [1] (treatment for 4 days), the “mRNA level of glucose transporter 1 (GLUT1)” value is “tended to increase”. For the same compound, in experiment [2], the “FFA synthesis … increase” value turned out to be 2 fold; the “level of TAG from labeled acetate” value is listed as “increased TAG”; the “level of DAG from labeled acetate” value is “increased levels of DAG”. The “rat FAS promoter luciferase reporter activity” value in experiment [3] came to 6.5 fold.

Source of the values: patent publication US20100137266A1, “TREATMENT OF INSULIN RESISTANCE AND DISORDERS ASSOCIATED THEREWITH” (UNIVERSITETET I OSLO, priority 2006, published 2010).
